From PMC10716780, “The multistep oxidation of cholesterol to pregnenolone by human cytochrome P450 11A1 is highly processive” (The Journal of Biological Chemistry, 2023)
“Also recorded” adds a separate entry of the source. Like-named read-outs stand apart in the source and are kept apart here.

Legend:
human P450 11A1 [1] = target: T1, human P450 11A1 (Homo sapiens, UniProt P05108); assay: Steady-state spectral (type I) binding titration, Kd determination; details: up to 1 mM
T1 construct: M A S T R S P R P F N E I P S P G D N; Met-Ala (N-terminal start residues in place of the transit peptide and Ile40) (N); made in house; host or cells: E. coli C41(DE3) with GroES/GroEL, vector pET23C(+)
T1 sequence (P05108 41-521 limits assumed): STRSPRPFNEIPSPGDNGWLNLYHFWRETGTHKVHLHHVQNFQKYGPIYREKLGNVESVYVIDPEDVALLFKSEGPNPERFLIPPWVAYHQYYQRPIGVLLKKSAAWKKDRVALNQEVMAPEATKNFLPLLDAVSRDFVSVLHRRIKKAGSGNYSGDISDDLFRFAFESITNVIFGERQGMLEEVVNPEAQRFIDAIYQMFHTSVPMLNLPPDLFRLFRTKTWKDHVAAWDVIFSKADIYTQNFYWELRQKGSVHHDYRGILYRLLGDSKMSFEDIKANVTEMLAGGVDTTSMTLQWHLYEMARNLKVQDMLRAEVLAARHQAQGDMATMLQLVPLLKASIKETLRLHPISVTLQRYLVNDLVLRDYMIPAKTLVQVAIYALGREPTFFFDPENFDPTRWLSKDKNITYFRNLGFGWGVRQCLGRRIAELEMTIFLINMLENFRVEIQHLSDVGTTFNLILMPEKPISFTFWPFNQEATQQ
Procedure: Ligand binding constants were determined from the low-to high-spin (hypsochromic) spectral transition that occurs at the P450 heme as substrate entering the active site replaces water as the sixth axial heme ligand. […] As a result, we subsequently measured koff values of the P450-sterol complexes, which were consistent with the low Kd values observed (see below). Binding titrations were repeated in the presence of Adx (1 M equivalent, Fig. 6), although no significant effect was observed, even when Adx was added in excess (10-fold with cholesterol as the substrate, data not shown).
Spectra were recorded using either an OLIS-Cary 14 or OLIS-Aminco DW2a instrument (On-Line Instrument Systems) in the split-beam mode. The OLIS-Cary 14 instrument was used in the P450 11A1 titrations with a 10-cm cell (Starna Cells, catalog no. 34-Q-100, volume 25 ml).
Kd values were determined by difference spectroscopy as previously reported ([33], [43]) but with some modifications. Briefly, a long-path quartz cuvette (10 cm, 25 ml) containing P450 11A1 (0.1 μM, in 100 mM potassium phosphate buffer (pH 7.4)) was prepared and a baseline was recorded in an OLIS-Cary 14 spectrophotometer. Where indicated, the redox partner Adx was added in equimolar concentration (0.1 μM) to P450. Sterol solutions (in 45% HPCD, w/v) were added to the cuvette, the contents of the cuvette were inverted to mix, and a spectrum was recorded (350–500 nm) after each addition. The total volume added to each cuvette was kept ≤2% (v/v, 0.25 ml) in the assay. The maximum absorbance difference (usually ΔA390−A418) was plotted against the total sterol concentration, and the data were fit to a quadratic equation in GraphPad Prism software (GraphPad, https://www.graphpad.com) to estimate the dissociation constant (Kd). A quadratic equation was used to correct the ligand concentration for the enzyme-bound concentration (used as Y=B+A/2∗1/E∗((Kd+E+X)−(Kd+E+X)^2−(4∗E∗X)) (or Y = B + (A/2)∗(1/E)∗((Kd + E + X)-sqrt((Kd + E + X)∧2 -(4∗E∗X)) in Prism software), where E = enzyme concentration, Kd = dissociation constant, and X = […]).

human P450 11A1 [2] = target: T2, human P450 11A1 (Homo sapiens, UniProt P05108); assay: Effect of Tween 20 and lipids on P450 11A1 catalytic activity (cholesterol to pregnenolone); details: for effect on P450 11A1 catalytic activity: 50 μM cholesterol, 0.25 μM P450 11A1, lipids 30 μM phospholipid
T2 sequence (P05108 41-521 limits assumed): T1 sequence (P05108 41-521 limits assumed)
T2 sequence (P00257 59-186 partner): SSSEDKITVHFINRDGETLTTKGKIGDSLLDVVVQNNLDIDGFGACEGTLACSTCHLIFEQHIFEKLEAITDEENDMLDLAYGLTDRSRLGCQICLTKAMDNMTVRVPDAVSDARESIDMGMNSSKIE
Procedure: The substrate cholesterol and its 22R-OH and 20R,22R-(OH)2 products were delivered in 2-hydroxypropyl-β-cyclodextrin (HPCD) ([36]) in assays, circumventing the need to use any detergents or organic solvents.
Reactions were run in triplicate and the conversion of cholesterol to pregnenolone was calculated and plotted (nmol pregnenolone formed min^−1 (nmol P450)^−1). (Note: These assays were done with P450 11A1 purified in the absence of Tween 20.). AdR, adrenodoxin reductase; Adx, adrenodoxin; P450, cytochrome P450.
Reactions were run in triplicate and the conversion of cholesterol to pregnenolone was calculated and plotted (nmol pregnenolone formed min^−1 (nmol P450)^−1). AdR, adrenodoxin reductase; Adx, adrenodoxin; P450, cytochrome P450.
Sterol dilutions were performed in HPCD to ensure that the HPCD composition was equal throughout all incubations (final 4.5% w/v). The reaction mixture was split between vials (425 μl in each), and reactions were preincubated (37 °C, 5 min) prior to initiation (75 μl) with an NADPH-generating system (0.5 mM NADP^+, 10 mM glucose 6-phosphate, and 2 μg ml^−1 glucose 6-phosphate dehydrogenase) ([61]). Reactions (5 min) were terminated by extraction into CH2Cl2 (2 ml) and transferred to an ice bath. After the experiment was complete, the quenched reactions were subjected to centrifugation (10^3g, 5 min, 23 °C) to separate layers, the organic (bottom) layer of each sample was removed (1.6 ml) to fresh glass vials, and the samples were brought to dryness under a stream of nitrogen.

P450 11A1 (CYP11A1) = target: T3, P450 11A1 (CYP11A1) (Homo sapiens, UniProt P05108); assay: Kinetic isotope effect assay, disappearance of d0- and d3-cholesterol under single-turnover conditions; type: biochemical; details: human, pH 7.4; 5 μM P450, 5 μM sterol, low Adx single-turnover; read-out: sterol half-life (t1/2) (converted)
T3 construct: M A S T R S P R P F N E I P S P G D N; Met-Ala (N-terminal start residues in place of the transit peptide and Ile40) (N); made in house; host or cells: E. coli (P450 11A1 in C41(DE3); Adx and AdR in E. coli)
T3 sequence (P05108 41-521 limits assumed): T1 sequence (P05108 41-521 limits assumed)
T3 sequence (P00257 59-186 partner): T2 sequence (P00257 59-186 partner)
Procedure: (§1) P450 11A1 incubations were performed under (low Adx) single-turnover conditions (5 μM P450, 5 μM cholesterol; see Experimental procedures) with d0- (authentic, unlabeled) and d3-cholesterol, and the disappearance of each was monitored by LC-atmospheric pressure chemical ionization-MS (m/z 369.3516 and 372.3705, respectively). In theory, if C-H bond breaking were rate-limiting in the initial hydroxylation then the rate of d3-cholesterol consumption would be slower relative to the d0 compound due to the increased strength of a C-D bond.
The kinetic isotope experiment was designed similarly to the benchtop experiment described above, but with some modifications. P450 11A1 (5 μM) was reconstituted with the redox partners AdR (10 μM) and Adx (5 μM) on ice (10 min) prior to dilution in potassium Hepes (50 mM, pH 7.4) and H2O and addition of d3-cholesterol substrate (5 μM). […]
Samples (held at 4 °C) were injected (10 μl) using a Waters Acquity UPLC system on a Acquity BEH octadecylsilane (C18) 2.1 mm × 50 mm (1.7 μm) UPLC column (held at 25 °C) with a flow rate of 0.5 ml min^−1 using an isocratic mobile phase of CH3CN (only). The column eluate was subjected to atmospheric pressure chemical ionization and analyzed using a Thermo Fisher Scientific LTQ XL Orbitrap mass spectrometer instrument operating in positive mode, scanning from m/z 100 to 500, with a resolution setting of 120,000. […]

human P450 11A1 [3] = target: T2, human P450 11A1; assay: as above; type: biochemical; design: M A S T R S P R P F N E I P S P G D N; Met-Ala (N-terminal start residues in place of the transit peptide and Ile40) (N); made in house; host or cells: E. coli (P450 11A1 in C41(DE3); Adx and AdR in E. coli); details: for kinetic isotope effect: C-22 hydroxylation, single-turnover
Procedure: as §1
The kinetic isotope experiment was designed similarly to the benchtop experiment described above, but with some modifications. P450 11A1 (5 μM) was reconstituted with the redox partners AdR (10 μM) and Adx (5 μM) on ice (10 min) prior to dilution in potassium Hepes (50 mM, pH 7.4) and H2O and addition of d3-cholesterol substrate (5 μM). The mixture was preincubated (5 min) prior to initiation with NADPH (2.5 mM, from 25 mM in potassium Hepes (50 mM, pH 7.4)) thus bringing all components to their desired final concentrations. After completing the desired incubation time, an aliquot (500 μl) was removed from the incubation and added to vials containing CH2Cl2 (5 ml) and the vials were mixed with a vortex device and placed on ice. The quenched reactions were centrifuged (10^3g, 5 min, 23 °C) to separate layers, and the organic (bottom) layers were removed (4 ml) and transferred to fresh glass vials. The extraction process was repeated and the two extracts (2 × 4 ml) from each sample were combined to maximize product recovery. Samples (8 ml) were brought to dryness under a stream of nitrogen, and the dried residues were dissolved in CH3OH (25 μl) and transferred to autosampler vials for analysis.
Samples (held at 4 °C) were injected (10 μl) using a Waters Acquity UPLC system on a Acquity BEH octadecylsilane (C18) 2.1 mm × 50 mm (1.7 μm) UPLC column (held at 25 °C) with a flow rate of 0.5 ml min^−1 using an isocratic mobile phase of CH3CN (only). The column eluate was subjected to atmospheric pressure chemical ionization and analyzed using a Thermo Fisher Scientific LTQ XL Orbitrap mass spectrometer instrument operating in positive mode, scanning from m/z 100 to 500, with a resolution setting of 120,000. Data were processed using Xcalibur QualBrowser (Thermo Fisher Scientific) software (version 2.0.7; https://www.thermofishcer.com/order/catalog/product/OPTON).

human P450 11A1 [4] = target: T1, human P450 11A1; assay: Stopped-flow ketoconazole trap, koff and binding rate measurements
Procedure: Interaction of the azole nitrogen atom with the P450 heme produces a bathochromic (“type II”) spectral shift (to ∼430 nm)—an inverse effect of the binding of substrate.
Measurement of kon rate(s) was not performed because the sterols are delivered in a solution of HPCD, from which the dissociation rate is not known.
Determinations of koff rates were performed as previously described ([33]).

Molecule: CC(C)CCC=O [4-methylpentanal]
- spectral shift with P450 11A1 (human P450 11A1 [1]): did not induce a spectral shift

Molecule: CCCCCCCCCCCC(=O)OC[C@H](COP(=O)([O-])OCC[N+](C)(C)C)OC(=O)CCCCCCCCCCC [L-α-dilauroyl-sn-glycero-3-phosphocholine]
- effect on P450 11A1 catalytic activity (human P450 11A1 [2]): not enhanced

Molecule: Tween 20
- concentrations found inhibitory (human P450 11A1 [2]; 0.25 μM P450 11A1, 50 μM cholesterol, 40-fold Adx): > 0.008 % (w/v)
- effect on P450 11A1 catalytic activity (human P450 11A1 [2]): inhibitory; also recorded: inhibited; also recorded: strongly inhibitory; also recorded: inhibits the enzyme

Molecule: cardiolipin
- effect on P450 11A1 catalytic activity (human P450 11A1 [2]): inhibit

Molecule: [2H]C([2H])(CCC(C)C)[C@@]([2H])(C)[C@H]1CC[C@H]2[C@@H]3CC=C4C[C@@H](O)CC[C@]4(C)[C@H]3CC[C@@]21C [d3-cholesterol, (20R)-Cholest-5-ene-20,22,22-d3-3β-ol]
- half-life at 5 μM (P450 11A1 (CYP11A1)): 22 s
- rate of disappearance (human P450 11A1 [3]; 5 μM P450, 5 μM sterol, exponential decay fit): 0.032 s⁻¹
- kinetic isotope effect (human P450 11A1 [3]): did not observe a kinetic isotope effect
- kinetic isotope effect (human P450 11A1 [3]; listed as d3-Cholesterol): no kinetic deuterium isotope effect

Molecule: CCCCCCCC/C=C\CCCCCCCC(=O)OC[C@H](COP(=O)([O-])OCC[N+](C)(C)C)OC(=O)CCCCCCC/C=C\CCCCCCCC [L-α-dioleyl-sn-glycero-3-phosphocholine]
- effect on P450 11A1 catalytic activity (human P450 11A1 [2]): not enhanced

Molecule: CC(=O)N1CCN(c2ccc(OCC3COC(Cn4ccnc4)(c4ccc(Cl)cc4Cl)O3)cc2)CC1 (centres unmarked) [ketoconazole, reference compound]
- observed rate of ketoconazole binding (ΔA430) (human P450 11A1 [4]; 20 μM ketoconazole mixed with 2 μM P450 11A1, equal volumes, 23 °C): 5.3 s⁻¹
- kon (human P450 11A1 [4]; read-out: fast phase of biexponential fit (ketoconazole kon), cholesterol data, trap experiment with P450-cholesterol complex): 710000 M⁻¹ s⁻¹
- kon (human P450 11A1 [4]; read-out: fast phase of biexponential fit (ketoconazole kon), pregnenolone data, trap experiment with P450-pregnenolone complex): 790000 M⁻¹ s⁻¹
- kon (human P450 11A1 [4]; read-out: rate of ketoconazole binding to unliganded P450 11A1 (kon), stopped-flow, unliganded enzyme): ≥ 500000 M⁻¹ s⁻¹
